SMILES strings stand for the structures.

The target in this test is T1, UPPSBf (undecaprenyl pyrophosphate synthase) (Bacteroides fragilis, UniProt Q5LI17).
T1 sequence (Q5LI17 1-244): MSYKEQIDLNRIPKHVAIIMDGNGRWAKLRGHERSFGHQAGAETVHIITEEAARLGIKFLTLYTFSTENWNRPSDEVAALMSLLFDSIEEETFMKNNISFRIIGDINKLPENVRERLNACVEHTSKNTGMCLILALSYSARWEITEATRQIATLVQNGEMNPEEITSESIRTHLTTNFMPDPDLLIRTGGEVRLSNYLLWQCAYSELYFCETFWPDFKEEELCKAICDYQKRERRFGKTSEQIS
Briefly: fluorescence plate assay, inhibition of […] 2AA-GPP elongation. It counts as biochemical.

For the compound `O=P(O)(O)OP(=O)(O)O` [diphosphate], half-maximal inhibition (IC50) was put at 1000 ± 200 µM.

Usually IC50 stands for the concentration that inhibits the measured activity by half. High values mean a need for much substance, low ones inhibition by little substance.

(Values after publication PMC4341984 (Biochemistry, 2014).)
